Results published in PMC5328764 (Physiological Reports, 2017).

Legend:
[1] = Plasma concentrations of the test substances by radioimmunoassay after s.c. injection; conditions: eight healthy volunteers
[2] = tested on: healthy volunteers; test: Plasma glucose after s.c. injection (glucose oxidase method); type: in vivo, human
Description: Plasma glucose was measured by the glucose oxidase method using a glucose analyzer (Yellow Springs Instrument, YSI Inc., Yellow Springs, OH).
(§1) Intravenous access was then established. […] Baseline measurements were made twice during the resting period.

[3] = tested on: healthy volunteers; test: Cardiovascular measurements by task force monitor (heart rate, blood pressure, cardiac output, stroke volume); type: in vivo, human; conditions: for Effect on heart rate (in words): s.c. GLP‐1 and GLP‐1 9–36amide 1.5 nmol/kg, exenatide 10 μg, 0–120 min, two‐way ANOVA, Tukey post hoc
Description: Cardiac parameters were continuously measured from time −15 to 120 min. The task force monitor (TFM; CN Systems, Graz, Austria) continuously measures the heart rate, blood pressure (by finger plethysmography), cardiac output (by impedance cardiography), and calculates stroke volume (SV). The continuous, beat‐to‐beat measuring of blood pressure was supplemented with the conventional noninvasive oscillometric blood pressure measurement. […] This was done to eliminate brief or short‐lasting changes in cardiac parameters due to accidental movement of the volunteer or slight disturbance during scanning.
as §1

[4] = tested on: healthy volunteers; test: Serum insulin and C‐peptide after s.c. injection (ECLIA); type: in vivo, human; conditions: fasting healthy volunteers n = 8; for Effect on insulin and C‐peptide (in words): s.c. 1.5 nmol/kg, 0–120 min
Description: Plasma insulin and C‐peptide levels were measured on a Cobas® 8000, e602 module (Roche Diagnostics GmbH, Mannheim) using, respectively, Cobas Insulin reagents and Cobas Insulin Calibrator, and Cobas C‐Peptide reagents and Cobas C‐Peptide Calibrator. The Cobas module employs a sandwich electro‐chemiluminescense immunoassay (ECLIA).
as §1
Analyses of normally distributed data were conducted by two‐way ANOVA followed by Tukey post hoc testing if the ANOVA indicated significant differences between the study days.

[5] = tested on: healthy volunteers; test: Plasma pancreatic polypeptide (PP) after s.c. injection (radioimmunoassay); type: in vivo, human; conditions: fasting healthy volunteers; s.c. GLP‐1 1.5 nmol/kg; due to excursions in a subset of participants
Excerpt: as §1

[6] = tested on: healthy volunteers; test: Doppler ultrasound blood flow in superior mesenteric artery, celiac trunk and renal artery (RI, TAMV); type: in vivo, human; conditions: healthy volunteers n = 8, s.c. GLP‐1 and GLP‐1 9–36amide 1.5 nmol/kg, exenatide 10 μg, 0–120 min
Excerpt: as §1

[7] = healthy volunteers n = 8, supine

Molecule | Time at which intact GLP‐1 reached basal levels ([1]; 1.5 nmol/kg GLP‐1 s.c.) | Total plasma GLP‐1 concentration, peak mean value on the GLP‐1 day ([1]; 1.5 nmol/kg GLP‐1 s.c., total = GLP‐1 7–36amide + 9–36amide, reached within 15 min, still elevated at 120 min, radioimmunoassay, mean) | Time of peak or plateau plasma concentration of the injected peptide (exendin‐4 or total GLP‐1 assay) ([1]; s.c., exenatide 10 μg, GLP‐1 and GLP‐1 9–36amide 1.5 nmol/kg) | Plasma glucose nadir ([2]; fasting healthy volunteers n = 8, s.c. 1.5 nmol/kg, from around 5 mmol/L, nadir at 30 min, mean) | Time of plasma glucose nadir ([2]; fasting healthy volunteers n = 8, s.c. GLP‐1 1.5 nmol/kg, exenatide 10 μg) | Time of peak heart rate increase ([3]; healthy volunteers n = 8, supine, s.c. GLP‐1 1.5 nmol/kg) | Maximum increase in heart rate ([3]; healthy volunteers n = 8, supine, s.c. GLP‐1 1.5 nmol/kg, peaking at 30 min) | Effect on heart rate (in words) [3, 7] | Effect on cardiac output (in words) ([3]; healthy volunteers n = 8, impedance cardiography, 120 min period, on the placebo day decrease by about 1 L/min) | Effect on stroke volume (in words) ([3]; healthy volunteers n = 8, s.c. GLP‐1 1.5 nmol/kg, lower values at 15 and 30 min) | Effect on insulin and C‐peptide (in words) [4] | Time until which C‐peptide levels remained elevated ([4]; s.c. GLP‐1 1.5 nmol/kg) | Time of insulin peak ([4]; s.c. GLP‐1 1.5 nmol/kg, exenatide 10 μg (for exenatide insulin and C‐peptide)) | Effect on plasma pancreatic polypeptide (PP) (in words) [5] | Changes in blood flow parameters in the mesenteric or renal arteries [6] | Time at which GLP‐1 9–36amide concentrations reached near basal levels ([1]; 1.5 nmol/kg GLP‐1 9–36amide s.c.) | Plasma concentration of the metabolite GLP‐1 9–36amide (total GLP‐1 assay), peak ([1]; 1.5 nmol/kg GLP‐1 9–36amide s.c., at 30 min, radioimmunoassay, mean) | Effect on plasma glucose (in words) ([2]; fasting healthy volunteers n = 8, s.c. exenatide 10 μg, GLP‐1 9–36amide 1.5 nmol/kg, 0–120 min)
CC[C@H](C)[C@H](NC(=O)[C@H](Cc1ccccc1)NC(=O)[C@H](CCC(=O)O)NC(=O)[C@H](CCCCN)NC(=O)[C@H](C)NC(=O)[C@H](C)NC(=O)[C@H](CCC(N)=O)NC(=O)CNC(=O)[C@H](CCC(=O)O)NC(=O)[C@H](CC(C)C)NC(=O)[C@H](Cc1ccc(O)cc1)NC(=O)[C@H](CO)NC(=O)[C@H](CO)NC(=O)[C@@H](NC(=O)[C@H](CC(=O)O)NC(=O)[C@H](CO)NC(=O)[C@@H](NC(=O)[C@H](Cc1ccccc1)NC(=O)[C@@H](NC(=O)CNC(=O)[C@H](CCC(=O)O)NC(=O)[C@H](C)NC(=O)[C@@H](N)Cc1c[nH]cn1)[C@@H](C)O)[C@@H](C)O)C(C)C)C(=O)N[C@@H](C)C(=O)N[C@@H](Cc1c[nH]c2ccccc12)C(=O)N[C@@H](CC(C)C)C(=O)N[C@H](C(=O)N[C@@H](CCCCN)C(=O)NCC(=O)N[C@@H](CCCNC(=N)N)C(N)=O)C(C)C [GLP‐1, glucagon‐like peptide‐1] | around 90 min | around 300 pmol/L | ≤ 15 min | 3.5 mmol/L | 30 min | 30 min | about 14 beats per min | significantly increased heart rate | tended to rise | appeared to fall more | caused a rise in insulin | 60 min | 15 min | mean PP levels rose late | Neither GLP‐1, GLP‐1_9–36 amide, exenatide nor saline elicited any changes in blood flow parameters | – | – | –
GLP‐1_9–36amide | – | – | – | – | – | – | – | remained stable | – | – | no significant changes | – | – | – | Neither GLP‐1, GLP‐1_9–36 amide, exenatide nor saline elicited any changes in blood flow parameters | 120 min | about 290 pmol/L | Neither saline nor the metabolite, GLP‐1_9–36amide influenced plasma glucose levels
